This is an account of results in patent EP4800012A1, “COMPOUND ACTING AS PARP7 INHIBITOR” (Dovetree Medicines Unus, Inc., priority 2023, dated 2025).

The subject of one assay is NCI-H1373 cells. Description: Inhibition on NCI-H1373 cell proliferation (Cell-Titer-Glo). In kind it is cell-based. To be noted: Homo sapiens, 144 h; NCI-H1373 cells, incubation for 6 days, Cell-Titer-Glo; read-out: NCI-H1373 cell proliferation inhibition IC50. As for the experimental part: The inhibitory effect of the compound on PARP7 was evaluated by testing the inhibitory effect of the compound on NCI-H1373 cell proliferation.
NCI-H1373 cells (ATCC, CRL-5866) were cultured in a complete medium, namely, a RPMI-1640 medium (Gibco, 22400089) containing 10% fetal bovine serum (Corning, 35-081-CV).
Negative control wells and positive control wells were added with 50 nL DMSO (Sigma, D2650), respectively.
In "Day 0" detection plate, NCI-H1373 cells were seeded at a density of 600 cells/well (50 µL) in a complete medium into the Day 0 test wells of a 384-well detection plate (Grenier, 781091). Then, 25 µL of Cell-Titer-Glo reagent (Promega, G7573) was added to each well, followed by centrifugation at 1000 rpm at room temperature for 1 minute and incubation at room temperature under shaded conditions for 10 min. Chemiluminescence signals were collected using an Envision (Perkin Elmer, EnVision 2105) to obtain the average value of the Day 0 test values.
In "compound detection plate", NCI-H1373 cells were seeded at a density of 600 cells/well (50 µL) in a complete medium into the negative control wells and the compound detection wells of a 384-well detection plate (Grenier, 781091), and 50 µL of cell culture medium was added to the positive control wells, followed by centrifugation at 1000 rpm at room temperature for 1 minute and placing in a cell incubator at 37°C, 5% CO2 for incubation for 6 days. […] Chemiluminescence signals were collected using an Envision (Perkin Elmer, EnVision 2105). The test values for each compound well, negative control well, and positive control well were obtained.
The proliferation inhibition ratio formula is as follows: [formula]
The average value of the negative control = the average value of the Day 6 test values of each negative control well minus the average value of the Day 0 test values
The average value of the positive control = the average value of the Day 6 test values of each positive control well
The average value of the compound test = (the Day 6 test value of compound test well 1 + the Day 6 test value of compound test well 2)/2 - the average value of the Day 0 test values

The target in assay [1] is T1, PARP7 (Homo sapiens, UniProt Q7Z3E1).
T1 construct: purchased BPS 80527
T1 sequence (Q7Z3E1 1-657): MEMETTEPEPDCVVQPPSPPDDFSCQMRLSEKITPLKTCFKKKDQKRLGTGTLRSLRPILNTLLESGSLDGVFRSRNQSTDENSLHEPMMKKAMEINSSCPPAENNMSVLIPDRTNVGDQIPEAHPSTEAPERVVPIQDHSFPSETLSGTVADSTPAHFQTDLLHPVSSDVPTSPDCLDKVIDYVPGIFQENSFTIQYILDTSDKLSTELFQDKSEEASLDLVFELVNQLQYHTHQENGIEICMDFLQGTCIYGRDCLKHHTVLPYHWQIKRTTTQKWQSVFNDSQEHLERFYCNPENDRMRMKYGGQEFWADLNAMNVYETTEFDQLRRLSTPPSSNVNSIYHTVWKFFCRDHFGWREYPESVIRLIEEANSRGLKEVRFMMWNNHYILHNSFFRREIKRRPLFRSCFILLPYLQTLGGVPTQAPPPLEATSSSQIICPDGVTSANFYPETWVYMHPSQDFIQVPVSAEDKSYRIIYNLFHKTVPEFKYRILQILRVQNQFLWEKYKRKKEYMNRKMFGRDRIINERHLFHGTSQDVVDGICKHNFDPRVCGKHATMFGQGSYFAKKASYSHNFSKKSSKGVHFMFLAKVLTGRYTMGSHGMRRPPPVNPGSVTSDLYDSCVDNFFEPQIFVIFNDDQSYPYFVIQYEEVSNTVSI
Kind of assay: Inhibition of the compound on PARP7 protein activity (ADP-ribosylation, chemiluminescence). In kind it is biochemical.

The target of assay [2] is T1, PARP7. Description: PARP7 TR-FRET binding inhibition (displacement of probe RBN011147). As for the experimental part:
The ability of the compound to substitute the probe RBN011147 (Wigle et al., 2020, Cell Chemical Biology 27, 877-887) was tested by a TR-FRET method, and IC50 was calculated to evaluate the binding ability of the compound to PARP7. […]
For orientation: TR-FRET usually uses a lanthanide donor and a delayed reading to cut background.

[3] abbreviates: Histone H1 coated plate, Biotin-Labeled NAD+, 2 h at room temperature, chemiluminescence, read-out: PARP7 activity inhibition IC50.
Where [4] appears, read: TR-FRET, Biotin-labeled probe RBN011147, read-out: PARP7 binding inhibition IC50.

Consider `CC(CCCNC(=O)c1ccc(-c2ncc(N3CC(F)C3)cn2)cc1)Nc1cn[nH]c(=O)c1C(F)(F)F` (stereo not drawn) [Example 20], for which the values for the IC50 with NCI-H1373 cells, at PARP7 [1] (setting [3]) and at PARP7 [2] (setting [4]) were 1000 to 3000 nM, below 3 nM and below 10 nM, respectively.
As to `Cc1cc(NC(C)CCCNC(=O)c2cnc(-c3ncc(C(F)(F)F)cn3)cn2)c(C#N)c(=O)[nH]1` (stereo not drawn) [Example 35], the IC50 is above 3000 nM in the assay on NCI-H1373 cells, 10 to 30 nM on PARP7 [1] and 30 to 100 nM on PARP7 [2].
With `CC(CCCNC(=O)c1ccc(-c2ncc(C(F)(F)F)s2)nc1)Nc1cn[nH]c(=O)c1C(F)(F)F` (stereo not drawn) [Example 211], the IC50 was 1000 to 3000 nM in the assay on NCI-H1373 cells, below 3 nM on PARP7 [1] (setting [3]) and below 10 nM on PARP7 [2] (setting [4]).
On the same counts, the results for `CC(CCCNC(=O)c1ccc(-c2cc(C(F)(F)F)on2)cc1)Nc1cn[nH]c(=O)c1C(F)(F)F` (stereo not drawn) [Example 79] are above 3000 nM, 3 to 10 nM and below 10 nM.
The corresponding values for `CC(CCCNC(=O)c1ccc(-n2cccn2)c(F)c1)Nc1cn[nH]c(=O)c1C(F)(F)F` (stereo not drawn) [Example 62] are above 3000 nM, 30 to 100 nM and 30 to 100 nM.
On the same counts, the results for `CC(CCCNC(=O)c1cc(-c2ncc(C(F)(F)F)cn2)on1)Nc1cn[nH]c(=O)c1C(F)(F)F` (stereo not drawn) [Example 39] are 300 to 1000 nM, below 3 nM and below 10 nM.
In the case of `CC(CCCNC(=O)c1ccc(-c2noc(C3CC3)n2)cc1)Nc1cn[nH]c(=O)c1C(F)(F)F` (stereo not drawn) [Example 186], the IC50 was 1000 to 3000 nM in the assay with NCI-H1373 cells, below 3 nM on PARP7 [1] (setting [3]) and 10 to 30 nM at PARP7 [2] (setting [4]).
The corresponding values for `CC(CCCNC(=O)c1cnc(-c2ncc(C(F)(F)F)cn2)cn1)Oc1cn[nH]c(=O)c1C(F)(F)F` (stereo not drawn) [Example 51] are below 300 nM, below 3 nM and 30 to 100 nM.
On the same counts, the results for `CC(CCCNC(=O)c1ccc(-c2ncc(C#N)cc2F)cc1)Nc1cn[nH]c(=O)c1C(F)(F)F` (stereo not drawn) [Example 67] are 300 to 1000 nM, below 3 nM and below 10 nM.
On the same counts, the results for `CC(CCCNC(=O)c1ccc(-c2ncc(N3CC(F)C3)s2)cc1)Nc1cn[nH]c(=O)c1C(F)(F)F` (stereo not drawn) [Example 16] are above 3000 nM, 3 to 10 nM and 10 to 30 nM.
For `CC(CCCNC(=O)c1ccc(-c2ncc(N3CCOCC3)cn2)cc1)Nc1cn[nH]c(=O)c1C(F)(F)F` (stereo not drawn) [Example 14], the results for the IC50 with NCI-H1373 cells, at PARP7 [1] (setting [3]) and at PARP7 [2] (setting [4]) were above 3000 nM, below 3 nM and below 10 nM, respectively.
In the case of `CC(CCCNC(=O)c1ccc(-c2cscn2)nc1)Nc1cn[nH]c(=O)c1C(F)(F)F` (stereo not drawn) [Example 60], the values for the IC50 with NCI-H1373 cells, at PARP7 [1] (setting [3]) and on PARP7 [2] (setting [4]) were 300 to 1000 nM, below 3 nM and below 10 nM, respectively.
As for `CC(CCCNC(=O)c1ccc(-n2cc(C(F)(F)F)cn2)cc1F)Nc1cn[nH]c(=O)c1C(F)(F)F` (stereo not drawn) [Example 176], the IC50 in the assay on NCI-H1373 cells was below 300 nM; on PARP7 [1] (setting [3]) it was below 3 nM; on PARP7 [2] (setting [4]), below 10 nM.
Consider `CC(CCCNC(=O)c1cnn(-c2ncc(C(F)(F)F)cn2)c1)Nc1cn[nH]c(=O)c1C(F)(F)F` (stereo not drawn) [Example 38], for which the IC50 in the assay with NCI-H1373 cells was above 3000 nM; at PARP7 [1] (setting [3]), below 3 nM; on PARP7 [2] (setting [4]), below 10 nM.
On the same counts, the results for `CC(CCCNC(=O)c1ccc(-c2ncc(N(C)C3CC3)s2)cc1)Nc1cn[nH]c(=O)c1C(F)(F)F` (stereo not drawn) [Example 56] are 300 to 1000 nM, below 3 nM and below 10 nM.
